Data on one molecule can be found in US9040458B2, “Safening composition of 6-(trisubstituded phenyl)-4-amino-2-pyridinecarboxylate herbicides and cloquintocet-mexyl for cereal crops” (Dow AgroSciences LLC, priority 2008, dated 2015).

SMILES strings stand for the structures. Counter-ions that a name gives are not always drawn.

For data set [1], the system named is TRZAS = Triticum aestivum (spring wheat). Briefly: Postemergence herbicidal safening, greenhouse, visual injury. In kind it is in vivo. The note with it: 20-22 d, listed as (1) TEA salt. Here is the method: (§1) Seeds of the desired test plant species were planted in Sun Gro MetroMix® 306 planting mixture, which typically has a pH of 6.0 to 6.8 and an organic matter content of about 30 percent, in plastic pots with a surface area of 103.2 square centimeters (cm^2). When required to ensure good germination and healthy plants, a fungicide treatment and/or other chemical or physical treatment was applied. The plants were grown for 7-36 days (d) in a greenhouse with an approximate […] photoperiod which was maintained at about 18° C. during the day and 17° C. during the night. Nutrients and water were added on a regular basis and supplemental lighting was provided with overhead metal halide 1000-Watt lamps as necessary. The plants were employed for testing when they reached the second or third true leaf stage.
(§2) Weighed amounts of esters (methyl) or salts (TEA [triethylammonium], potassium [K]) of 4-amino-3-chloro-6-(4-chloro-2-fluoro-3-methoxyphenyl)pyridine-2-carboxylic acid (Compound 1) were dissolved in a volume of 97:3 volume/volume (v/v) acetone/dimethylsulfoxide (DMSO) to obtain stock solutions. […] The concentrated stock solutions were diluted with an aqueous mixture of 1.5% v/v of Agri-dex crop oil concentrate to provide the appropriate application rates. Compound requirements are based upon a 12 mL application volume at a rate of 187 liters per hectare (L/ha). Stocks solutions of the safeners were prepared following the same procedure. Spray solutions of the safeners and experimental compound mixtures were prepared by adding the appropriate volume of both stock solutions to the appropriate amount of dilution solution to form a 12 mL spray solution with active ingredients in two-way combinations. Formulated compounds were applied to the plant material with an overhead Mandel track sprayer equipped with 8002E nozzles calibrated to deliver 187 L/ha over an application area of 0.503 square meters (m^2) at a spray height of 18 inches (43 centimeters (cm)) above average plant canopy. Control plants were sprayed in the same manner with the solvent blank.
(§3) The treated plants and control plants were placed in a greenhouse as described above and watered by sub-irrigation to prevent wash-off of the test compounds. After 20-22 d, the condition of the test plants as compared with that of the control plants was determined visually and scored on a scale of 0 to 100 percent where 0 corresponds to no injury and 100 corresponds to complete kill.
(§4) Colby's equation was used to determine the herbicidal effects expected from the mixtures (Colby, S. R., Calculation of the synergistic and antagonistic response of herbicide combinations. Weeds 1967, 15, 20-22.).
(§5) The following equation was used to calculate the expected activity of mixtures containing two active ingredients, A and B: Expected=A+B−(A×B/100)
(§6) A=observed efficacy of active ingredient A at the same concentration as used in the mixture.
(§7) B=observed efficacy of active ingredient B at the same concentration as used in the mixture.

Data set [2] concerns HORVS = Hordeum vulgare (spring barley). The description is as above. The note with it: 20-22 d, listed as (1) TEA salt. In kind it is in vivo. How it is done:
as §1, §2, §3, §4, §5, §6, §7

Data set [3] deals with TRZDU = Triticum durum (durum wheat). The description is as above. In kind it is in vivo. As to conditions: applied alone at 140 g/ha; 20-22 d. Here is the method: as §1, §2, §3, §4, §5, §6, §7
In data set [4] the test system is TRZAW = Triticum aestivum (winter wheat). Described as above. In kind it is in vivo. As to conditions: applied alone at 140 g/ha; 20-22 d; listed as (1) TEA salt. How it is done: as §1, §2, §3, §4, §5, §6, §7
The subject of data set [5] is VIOTR = Viola tricolor (wild pansy). Briefly: Postemergence herbicidal activity, greenhouse, visual injury. In kind it is in vivo. As to conditions: applied alone at 140 g/ha; 20-22 d; listed as (1) TEA salt. Here is the method: as §1, §2, §3, §4, §5, §6, §7
For data set [6], the system named is SASKR = Salsola iberica (Russian thistle). The data set is described as above. The note with it: applied alone at 140 g/ha; 20-22 d; listed as (1) TEA salt. In kind it is in vivo. Here is the method:
as §1, §2, §3, §4, §5, §6, §7

Data set [7] deals with VERPE = Veronica persica (bird's-eye speedwell). The description is as above. In kind it is in vivo. The note with it: applied alone at 140 g/ha; 20-22 d; listed as (1) TEA salt. How it is done: as §1, §2, §3, §4, §5, §6, §7
For data set [8], the system named is KCHSC = Kochia scoparia (kochia). The description is as above. In kind it is in vivo. The note with it: applied alone at 140 g/ha; 20-22 d; listed as (1) TEA salt. Here is the method:
as §1, §2, §3, §4, §5, §6, §7

Data set [9] has as its system STEME = Stellaria media (common chickweed). Described as above. In kind it is in vivo. As to conditions: applied alone at 140 g/ha; 20-22 d. Here is the method:
as §1, §2, §3, §4, §5, §6, §7

Data set [10] relates to MATCH = Matricaria chamomila (scented mayweed). The data set is described as above. As to conditions: applied alone at 140 g/ha; 20-22 d; listed as (1) TEA salt. In kind it is in vivo. Here is the method:
as §1, §2, §3, §4, §5, §6, §7

The next data set deals with PAPRH (corn poppy). The data set is described as above. In kind it is in vivo, Papaver rhoeas. As to conditions: applied alone at 140 g/ha; 20-22 d. Here is the method:
as §1, §2, §3, §4, §5, §6, §7

The subject of data set [11] is LAMPU (purple deadnettle). Described as above. In kind it is in vivo, Lamium purpureum. As to conditions: applied alone at 140 g/ha; 20-22 d. How it is done:
as §1, §2, §3, §4, §5, §6, §7

Another data set relates to HORVW (winter barley). Briefly: Postemergence herbicidal safening, greenhouse, visual injury. As to conditions: applied alone at 140 g/ha; 20-22 d; listed as (1) TEA salt. In kind it is in vivo, Hordeum vulgare. Here is the method:
as §1, with “stage. […]” for “stage.”
The treated plants and control plants were placed in a greenhouse as described above and watered by sub-irrigation to prevent wash-off of the test compounds. After 20-22 d, the condition of the test plants as compared with that of the control plants was determined visually and scored on a scale of 0 to 100 percent where 0 corresponds to no injury and 100 corresponds to complete kill. […]

The test system of a further data set is POLCO (wild buckwheat). The data set can be described thus: Postemergence herbicidal activity, greenhouse, visual injury. In kind it is in vivo, Polygonum convolvulus. As to conditions: applied alone at 140 g/ha; 20-22 d. How it is done:
as §1, §2, §3, §4, §5, §6, §7

`COc1c(Cl)ccc(-c2cc(N)c(Cl)c(C(=O)O)n2)c1F` [Compound (1) TEA salt, 4-amino-3-chloro-6-(4-chloro-2-fluoro-3-methoxyphenyl)pyridine-2-carboxylic acid]: the “TRZAS Ob (observed injury)” value was determined as 5% in data set [1] (applied alone at 8.75 g/ha), 15% in data set [1] (applied alone at 35 g/ha), 10% in [1] (applied alone at 70 g/ha) and 27% in data set [1] (applied alone at 140 g/ha). In addition, the “HORVS Ob (observed injury)” value in data set [2] (applied alone at 8.75 g/ha) was determined as 25%; in data set [2] (applied alone at 35 g/ha) it was 23%; in data set [2] (applied alone at 140 g/ha), 23%. The “TRZDU Ob (observed injury)” value in data set [3] is listed as 10%. In data set [4], the “TRZAW Ob (observed injury)” value came out at 24%. Further, the “VIOTR Ob (observed injury)” value in data set [5] was found to be 66%. Also, in data set [6], the “SASKR Ob (observed injury)” value stood at 86%. Also, the “VERPE Ob (observed injury)” value in data set [7] amounted to 89%. The “KCHSC Ob (observed injury)” value in data set [8] is listed as 95%. Further, in data set [9], the “STEME Ob (observed injury)” value came to 88%. The “MATCH Ob (observed injury)” value in data set [10] was determined as 84%. For the same molecule, the “PAPRH Ob (observed injury)” value with PAPRH (corn poppy) is listed as 100%. For the same molecule, in data set [11], the “LAMPU Ob (observed injury)” value is 98%. The “HORVW Ob (observed injury)” value in the data set with HORVW (winter barley) was found to be 15%. Moreover, the “POLCO Ob (observed injury)” value in the data set on POLCO (wild buckwheat) is recorded as 100%.
